Experimental data from article PMC6100113, “Involvement of CYP4F2 in the Metabolism of a Novel Monophosphate Ester Prodrug of Gemcitabine and Its Interaction Potential In Vitro” (Molecules : A Journal of Synthetic Chemistry and Natural …, 2018).

Columns and labels:
Format in all cases: in vitro ADME
[1] = Stability in human plasma; details: 1 μM, 37 °C
Method: (§1) For stability testing in plasma, the reaction was started with the addition of Compound-3 (1 µM). At specified time points, aliquots of 25 µL of the reaction mixtures were transferred into 100 μL ice-cold acetonitrile containing the internal standard. The samples were then centrifuged, and aliquots of 10 µL of the supernatants were transferred onto LC-MS/MS for the analysis of Compound-3 levels.

[2] = Metabolic stability in human hepatocytes; details: human hepatocytes 1 × 10^6 cell/mL, 1 μM, 37 °C
Method: as §1, with “evaluation” for “testing”, “human hepatocytes, cryopreserved primary human hepatocytes were revived according to vendor’s protocol and diluted to a density of 1 × 10^6 cell/mL with William’s Medium. The” for “plasma, the”, “μM).” for “µM).”, “μL” for “µL”, “levels and its metabolites.” for “levels.”

[3] = Metabolic stability in rat liver microsomes; details: rat liver microsomes 0.2 mg/mL, with NADPH, 1 μM, 37 °C
Method: (§2) Stability of Compound-3 was first investigated in microsomal systems from human and rat. The microsomal protein and Compound-3 concentrations were optimized to 0.2 mg/mL and 1 µM, respectively. Before the start of the incubation, reaction mixtures containing phosphate buffer (100 mM, pH 7.4), microsomes and Compound-3 in a total volume of 50 µL were warmed up at 37 °C for 10 min. The reaction was started with the addition of NADPH at a final concentration of 1 mM. Incubations were terminated at a specified time with the addition of 100 µL ice-cold acetonitrile containing the internal standard. The samples were then centrifuged, and aliquots of 10 µL of the supernatants were transferred into liquid chromatography-tandem mass spectrometry (LC-MS/MS) for the analysis of Compound-3 levels.

CYP3A4 = target: T1, CYP3A4 (Homo sapiens, UniProt P08684); experiment: Reaction phenotyping with recombinant CYP3A4; details: recombinant CYP3A4 50 nM, 1 μM, NADPH
T1 construct: purchased Corning Gentest
Method: Compound-3 was incubated separately with human cDNA-expressed cytochrome P450s (CYP1A2, CYP2B6, CYP2C8, CYP2C9, CYP2C19, CYP2D6, CYP3A4, CYP4A11, CYP4F2 and CYP4F3). The incubation mixtures contained individual CYP isoenzymes (50 nM), potassium phosphate buffer (100 mM, pH 7.4), NADPH (1 mM), and Compound-3 (1 µM). The final volume of the incubation mixture was 50 µL. Before the start of the incubation, reaction mixtures were warmed up at 37 °C for 10 min. The reaction was initiated with the addition of NADPH and the incubations were performed at 37 °C in a water bath. After 60 min of incubation, the reactions were terminated with an equal volume of ice-cold acetonitrile containing the internal standard. Control samples without NADPH but substrates were included. The samples were then centrifuged and aliquots of 10 μL of the supernatants were transferred onto LC-MS/MS for the analysis of Compound-3 and M4 (carboxylic acid) levels.

[4] = Metabolite identification by UPLC/Triple TOF MS in rat liver microsomes; design: key: √: metabolites were detected by high-resolution mass spectrometry; details: Compound-3 10 μM, 1 mg/mL microsomes, NADPH, 60 min, HRMS
Method: For metabolite identification, a higher concentration of Compound-3 (10 μM) was incubated with liver microsomes (1 mg/mL) in the presence of NADPH (1 mM) and primary human hepatocytes at a density of 1 × 10^6 cell/mL. Samples were collected at 0 min and 60 min with the addition of ice-cold acetonitrile. After vortexing and centrifugation, the supernatant was transferred into a new tube and evaporated to dryness. The samples were then reconstituted in 100 μL of water and methanol (v/v, 9:1). An aliquot of 10 μL of reconstituted solution was injected into UPLC/Triple TOF 5600^+ MS for metabolite identification.
Identification of Compound-3 metabolites was carried out using Acquity UPLC/Triple TOF 5600^+ system. Chromatographic separation for Compound-3 and its metabolites were achieved by an Acquity UPLC HSS T3 column (100 × 2.1 mm i.d., […]; Waters Corp.) maintained at 40 °C. The mobile phase was a mixture of 0.02% formic acid in 5 mM ammonium acetate (A) and methanol (B). The gradient elution was started from 2% B and maintained for 4 min, then increased linearly to 75% B over the next 4 min and maintained for 8 min. […] The flow rate was 0.4 mL/min and the eluent was monitored by UV detection at 280 nm.
For mass detection, a Triple TOF 5600^+ mass spectrometer (AB Sciex, Framingham, MA, USA) was operated in positive ion electrospray (ES-positive) mode with the source temperature at 500 °C and scan range from m/z 100 to 1000 Da. Other parameters were set as follows: ion spray voltage, 5500 V; decluttering potential, 80 V; curtain gas, 40 psi; ion source gas 1, 55 psi; and ion source gas 2, 50 psi. Collision energies of 25 and 65 eV were used for TOF MS and product ion scans, respectively, and a collision energy spread of 20 was used in the MS/MS analysis. Information-dependent acquisition (IDA), together with real-time multiple mass defect filter, was used to trigger acquisition of MS/MS spectra.

[5] = Metabolite identification by UPLC/Triple TOF MS in rat intestinal microsomes; design: key: √: metabolites were detected by high-resolution mass spectrometry; details: Compound-3 10 μM, NADPH, 60 min, HRMS
[6] = Metabolic stability in human intestinal microsomes; details: human intestinal microsomes 0.2 mg/mL, with NADPH, 1 μM, 37 °C
Method: as §2

T1 sequence (P08684 whole entry): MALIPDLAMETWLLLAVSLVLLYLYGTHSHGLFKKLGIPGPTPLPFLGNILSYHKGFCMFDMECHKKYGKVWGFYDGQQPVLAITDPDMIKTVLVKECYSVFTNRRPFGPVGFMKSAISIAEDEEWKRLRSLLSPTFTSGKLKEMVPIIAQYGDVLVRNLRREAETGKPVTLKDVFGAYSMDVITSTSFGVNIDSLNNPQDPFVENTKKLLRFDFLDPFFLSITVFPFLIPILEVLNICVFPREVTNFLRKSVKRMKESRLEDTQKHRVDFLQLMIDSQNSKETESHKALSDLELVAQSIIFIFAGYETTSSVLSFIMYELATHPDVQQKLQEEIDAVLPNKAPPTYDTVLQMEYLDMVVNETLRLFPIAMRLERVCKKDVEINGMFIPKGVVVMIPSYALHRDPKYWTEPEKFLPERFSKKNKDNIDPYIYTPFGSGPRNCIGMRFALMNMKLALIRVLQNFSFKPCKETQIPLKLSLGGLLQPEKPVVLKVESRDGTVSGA

SMILES: CCCCCCCCCCCCCCCCCCOCCOP(=O)(O)OCC1OC(n2ccc(N)nc2=O)C(F)(F)C1O (stereo not shown) [Compound-3]
- disappearance in plasma [1]: did not display noticeable disappearance
- disappearance after 60 min incubation [2]: ~ 30%
- disappearance in 60 min [3]: ~ 10%
- metabolism of Compound-3 by CYP isozyme (CYP3A4): moderate metabolic activity
- detected in matrix RLM [4]: √
- detected in matrix RIM [5]: √
- disappearance after 60 min incubation [6]: > 50%
